pIC50: −log10 of the molar value.
Assays:
[1] = target: ALK tyrosine kinase receptor (Homo sapiens, UniProt Q9UM73); experiment: Inhibition of wild type human recombinant ALK using TK substrate-biotin incubated for 30 mins by HTRF assay
[2] = target: ALK tyrosine kinase receptor (Homo sapiens, UniProt Q9UM73, L1196M); experiment: Inhibition of ALK L1196M mutant (unknown origin) using TK substrate-biotin incubated for 30 mins by HTRF assay
[3] = Antiproliferative activity against human KARPAS299 cells assessed as inhibition of cell proliferation incubated for 96 hrs by cell-titer-Glo assay; type: functional, cell-based; conditions: KARPAS-299, 96 h
NCI-H2228 = experiment: Antiproliferative activity against human NCI-H2228 cells assessed as inhibition of cell proliferation incubated for 96 hrs by cell-titer-Glo assay; type: functional, cell-based; conditions: NCI-H2228, 96 h
[4] = Clearance in rat; type: ADME, organism-based; conditions: in vivo
Mus musculus = experiment: Toxicity in human NCI-H2228 cells xenografted Balb/c mouse EML4-ALK NSCLC model assessed as induction of body weight loss at 30 mg/kg, po qd for 2 weeks; type: organism-based; conditions: in vivo, 336 h
[5] = Half life in Sprague-Dawley rat at 1 mg/kg, iv by LC-MS/MS method; type: ADME, organism-based; conditions: in vivo
[6] = AUC (0 to infinity) in Sprague-Dawley rat at 1 mg/kg, iv by LC-MS/MS method; type: ADME, organism-based; design: dose 1 mg/kg, route intravenous, time infinity; conditions: in vivo
[7] = Volume of distribution in Sprague-Dawley rat at 1 mg/kg, iv by LC-MS/MS method; type: ADME, organism-based; conditions: in vivo
[8] = Clearance in Sprague-Dawley rat at 1 mg/kg, iv by LC-MS/MS method; type: ADME, organism-based; conditions: in vivo
[9] = Cmax in Sprague-Dawley rat at 5 mg/kg, po by LC-MS/MS method; type: ADME, organism-based; design: dose 5 mg/kg, route oral; conditions: in vivo
[10] = Tmax in Sprague-Dawley rat at 5 mg/kg, po by LC-MS/MS method; type: ADME, organism-based; conditions: in vivo
[11] = AUC (0 to infinity) in Sprague-Dawley rat at 5 mg/kg, po by LC-MS/MS method; type: ADME, organism-based; design: dose 5 mg/kg, time infinity, route oral; conditions: in vivo
[12] = Oral bioavailability in Sprague-Dawley rat at 5 mg/kg by LC-MS/MS method; type: ADME, organism-based; conditions: in vivo
[13] = Half life in beagle dog at 1 mg/kg, iv by LC-MS/MS method; type: ADME, organism-based, Canis lupus familiaris; conditions: in vivo
[14] = AUC (0 to infinity) in beagle dog at 1 mg/kg, iv by LC-MS/MS method; type: ADME, organism-based, Canis lupus familiaris; design: dose 1 mg/kg, route intravenous, time infinity; conditions: in vivo
[15] = Volume of distribution in beagle dog at 1 mg/kg, iv by LC-MS/MS method; type: ADME, organism-based, Canis lupus familiaris; conditions: in vivo
[16] = Clearance in beagle dog at 1 mg/kg, iv by LC-MS/MS method; type: ADME, organism-based, Canis lupus familiaris; conditions: in vivo
[17] = Cmax in beagle dog at 3 mg/kg, po by LC-MS/MS method; type: ADME, organism-based, Canis lupus familiaris; design: dose 3 mg/kg, route oral; conditions: in vivo
[18] = Tmax in beagle dog at 3 mg/kg, po by LC-MS/MS method; type: ADME, organism-based, Canis lupus familiaris; conditions: in vivo
[19] = AUC (0 to infinity) in beagle dog at 3 mg/kg, po by LC-MS/MS method; type: ADME, organism-based, Canis lupus familiaris; design: dose 3 mg/kg, route oral, time infinity; conditions: in vivo
[20] = Oral bioavailability in beagle dog at 3 mg/kg by LC-MS/MS method; type: ADME, organism-based, Canis lupus familiaris; conditions: in vivo

ALK tyrosine kinase receptor (Homo sapiens, UniProt Q9UM73), sequence (Q9UM73 whole entry): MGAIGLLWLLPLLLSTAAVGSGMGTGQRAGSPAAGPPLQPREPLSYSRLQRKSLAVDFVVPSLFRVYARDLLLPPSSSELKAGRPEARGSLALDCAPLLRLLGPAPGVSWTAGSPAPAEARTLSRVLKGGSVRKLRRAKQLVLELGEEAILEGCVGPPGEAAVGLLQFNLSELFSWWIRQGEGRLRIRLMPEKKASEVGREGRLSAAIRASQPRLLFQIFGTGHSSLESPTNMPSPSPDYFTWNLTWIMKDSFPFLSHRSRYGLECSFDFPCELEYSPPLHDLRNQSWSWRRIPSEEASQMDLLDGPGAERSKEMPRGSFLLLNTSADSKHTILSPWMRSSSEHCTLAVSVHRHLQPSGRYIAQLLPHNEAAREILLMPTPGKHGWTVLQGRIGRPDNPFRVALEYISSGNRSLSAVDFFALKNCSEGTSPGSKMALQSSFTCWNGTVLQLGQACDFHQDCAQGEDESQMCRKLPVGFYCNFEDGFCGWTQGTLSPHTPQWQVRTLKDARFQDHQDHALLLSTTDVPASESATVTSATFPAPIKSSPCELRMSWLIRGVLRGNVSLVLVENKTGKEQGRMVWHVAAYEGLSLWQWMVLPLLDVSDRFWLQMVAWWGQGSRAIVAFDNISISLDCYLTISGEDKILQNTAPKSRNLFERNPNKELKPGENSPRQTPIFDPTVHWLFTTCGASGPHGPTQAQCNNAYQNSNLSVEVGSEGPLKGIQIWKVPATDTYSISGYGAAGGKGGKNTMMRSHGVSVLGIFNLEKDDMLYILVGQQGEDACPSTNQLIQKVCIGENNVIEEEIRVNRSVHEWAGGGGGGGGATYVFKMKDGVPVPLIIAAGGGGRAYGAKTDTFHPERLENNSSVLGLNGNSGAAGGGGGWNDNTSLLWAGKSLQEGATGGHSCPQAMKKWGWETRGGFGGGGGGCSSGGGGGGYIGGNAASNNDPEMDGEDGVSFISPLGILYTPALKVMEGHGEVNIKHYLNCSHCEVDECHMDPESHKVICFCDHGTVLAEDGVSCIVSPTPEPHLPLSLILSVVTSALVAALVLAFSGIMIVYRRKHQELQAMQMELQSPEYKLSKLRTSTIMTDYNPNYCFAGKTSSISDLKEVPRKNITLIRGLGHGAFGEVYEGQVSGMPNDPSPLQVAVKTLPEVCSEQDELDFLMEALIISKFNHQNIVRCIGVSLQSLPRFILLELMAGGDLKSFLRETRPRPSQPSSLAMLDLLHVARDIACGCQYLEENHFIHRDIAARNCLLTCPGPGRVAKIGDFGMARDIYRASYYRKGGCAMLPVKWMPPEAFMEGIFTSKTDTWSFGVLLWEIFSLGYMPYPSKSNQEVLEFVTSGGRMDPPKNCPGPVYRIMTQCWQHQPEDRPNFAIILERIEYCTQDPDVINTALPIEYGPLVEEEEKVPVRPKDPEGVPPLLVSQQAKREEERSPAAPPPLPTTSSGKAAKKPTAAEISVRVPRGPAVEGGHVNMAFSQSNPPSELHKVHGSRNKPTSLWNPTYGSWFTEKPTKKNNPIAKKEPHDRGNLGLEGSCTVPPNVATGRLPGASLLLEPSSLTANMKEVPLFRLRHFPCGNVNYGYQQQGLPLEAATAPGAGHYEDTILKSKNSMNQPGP
ALK tyrosine kinase receptor (Homo sapiens, UniProt Q9UM73, L1196M), sequence (Q9UM73 19-1620 L1196M limits assumed): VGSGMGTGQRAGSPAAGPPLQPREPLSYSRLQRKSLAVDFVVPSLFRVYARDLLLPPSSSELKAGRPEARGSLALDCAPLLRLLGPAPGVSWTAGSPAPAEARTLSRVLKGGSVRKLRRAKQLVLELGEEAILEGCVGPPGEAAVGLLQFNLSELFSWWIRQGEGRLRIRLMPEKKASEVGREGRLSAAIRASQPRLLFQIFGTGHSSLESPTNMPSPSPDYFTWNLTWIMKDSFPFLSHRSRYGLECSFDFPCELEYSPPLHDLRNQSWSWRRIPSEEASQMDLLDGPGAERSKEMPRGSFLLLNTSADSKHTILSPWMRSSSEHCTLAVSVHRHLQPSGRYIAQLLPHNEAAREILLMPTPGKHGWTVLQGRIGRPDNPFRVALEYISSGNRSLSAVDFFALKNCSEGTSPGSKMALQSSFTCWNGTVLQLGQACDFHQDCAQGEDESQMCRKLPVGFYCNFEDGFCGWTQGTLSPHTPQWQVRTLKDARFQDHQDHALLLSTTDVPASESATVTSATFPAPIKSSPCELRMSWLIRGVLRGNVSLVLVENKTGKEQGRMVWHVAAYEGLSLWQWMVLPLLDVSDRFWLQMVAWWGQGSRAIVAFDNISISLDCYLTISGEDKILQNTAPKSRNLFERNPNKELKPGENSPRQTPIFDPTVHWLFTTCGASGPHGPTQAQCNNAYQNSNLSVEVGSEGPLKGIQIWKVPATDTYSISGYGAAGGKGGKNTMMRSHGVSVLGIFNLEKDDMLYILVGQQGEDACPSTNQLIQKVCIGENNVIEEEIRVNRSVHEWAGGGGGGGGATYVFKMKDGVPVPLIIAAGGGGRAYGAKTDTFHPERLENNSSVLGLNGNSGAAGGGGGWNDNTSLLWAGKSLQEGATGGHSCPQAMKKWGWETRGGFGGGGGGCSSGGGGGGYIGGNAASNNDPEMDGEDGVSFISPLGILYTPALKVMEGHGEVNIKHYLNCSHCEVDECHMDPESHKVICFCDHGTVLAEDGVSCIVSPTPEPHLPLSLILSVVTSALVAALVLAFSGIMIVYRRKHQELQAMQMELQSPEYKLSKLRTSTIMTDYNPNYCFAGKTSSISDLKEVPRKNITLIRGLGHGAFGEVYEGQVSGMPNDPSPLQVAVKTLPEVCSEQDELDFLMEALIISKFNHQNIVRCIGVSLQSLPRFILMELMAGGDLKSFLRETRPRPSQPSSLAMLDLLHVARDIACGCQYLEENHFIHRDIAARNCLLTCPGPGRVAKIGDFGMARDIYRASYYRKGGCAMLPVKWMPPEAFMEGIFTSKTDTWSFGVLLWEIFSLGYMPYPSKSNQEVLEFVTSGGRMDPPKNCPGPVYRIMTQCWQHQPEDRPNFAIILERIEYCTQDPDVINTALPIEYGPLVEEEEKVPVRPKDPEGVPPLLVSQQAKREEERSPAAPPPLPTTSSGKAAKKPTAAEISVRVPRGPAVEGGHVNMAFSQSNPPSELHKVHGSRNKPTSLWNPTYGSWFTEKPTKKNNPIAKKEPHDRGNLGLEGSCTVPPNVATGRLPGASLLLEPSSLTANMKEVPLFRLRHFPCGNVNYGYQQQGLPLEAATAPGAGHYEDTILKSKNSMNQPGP

SMILES	pIC50 [3]	pIC50 (NCI-H2228)	other results
Cc1cc(Nc2ncc(Cl)c(Nc3cn(C)nc3S(=O)(=O)C(C)C)n2)c(OC(C)C)cc1C1CCNCC1	7.77	6.65	pIC50 [1]: 8.10; pIC50 [2]: 7.70
Cc1cc(Nc2ncc(Cl)c(Nc3cn(C)nc3S(=O)(=O)C(C)C)n2)c(OC2CC2)cc1C1CCNCC1	8.05	6.91	–
Cc1cc(Nc2ncc(Cl)c(Nc3cn(C)nc3S(=O)(=O)C(C)C)n2)c(OC2CC2)cc1C1CCN(C)CC1	–	–	clearance [4]: 22.7 mL/min/kg
Cc1cc(Nc2ncc(Cl)c(Nc3cn(C)nc3S(=O)(=O)C(C)C)n2)c(OCC2CC2)cc1C1CCNCC1	7.37	6.58	–
Cc1cc(Nc2ncc(Cl)c(Nc3cn(C)nc3S(=O)(=O)C(C)C)n2)c(OCC2CC2)cc1C1CCN(C)CC1	7.13	6.65	–
Cc1cc(Nc2ncc(Cl)c(Nc3cn(C)nc3S(=O)(=O)C(C)C)n2)c(OC(CF)CF)cc1C1CCN(C)CC1	7.21	6.39	–
Cc1cc(Nc2ncc(Cl)c(Nc3cn(C)nc3S(=O)(=O)C(C)C)n2)c(OC(F)(F)F)cc1C1CCN(C)CC1	7.70	6.43	–
Cc1cc(Nc2ncc(Cl)c(Nc3cn(C)nc3S(=O)(=O)C(C)C)n2)c(C(F)(F)F)cc1C1CCN(C)CC1	7.13	5.97	–
Cc1cc(Nc2ncc(Cl)c(Nc3cn(C)nc3S(=O)(=O)C(C)C)n2)c(C(C)C)cc1C1CCN(C)CC1	–	6.18	–
CC(C)S(=O)(=O)c1nn(C)cc1Nc1nc(Nc2ccc(C3CCN(C)CC3)cc2OC2CC2)ncc1Cl	8.15	7.44	clearance [4]: 79.8 mL/min/kg
CC(C)S(=O)(=O)c1nn(C)cc1Nc1nc(Nc2cc(Cl)c(C3CCN(C)CC3)cc2OC2CC2)ncc1Cl	7.82	6.99	–
CC(C)S(=O)(=O)c1nn(C)cc1Nc1nc(Nc2cc(C#N)c(C3CCN(C)CC3)cc2OC2CC2)ncc1Cl	7.00	6.78	–
Cc1cc(Nc2ncc(Cl)c(Nc3cn(C)nc3S(=O)(=O)C(C)C)n2)c(OC(C)C)cc1C1CNC1	7.22	6.54	–
Cc1cc(Nc2ncc(Cl)c(Nc3cn(C)nc3S(=O)(=O)C(C)C)n2)c(OC(C)C)cc1C1CN(C)C1	7.77	6.57	pIC50 [1]: 8.70; pIC50 [2]: 8.30
Cc1cc(Nc2ncc(Cl)c(Nc3cn(C)nc3S(=O)(=O)C(C)C)n2)c(OC(C)C)cc1C1CCNC1 (stereo not drawn)	7.55	6.44	–
Cc1cc(Nc2ncc(Cl)c(Nc3cn(C)nc3S(=O)(=O)C(C)C)n2)c(OC(C)C)cc1C1CCN(C)C1 (stereo not drawn)	7.96	6.88	–
Cc1cc(Nc2ncc(Cl)c(Nc3cn(C)nc3S(=O)(=O)C(C)C)n2)c(OC2CC2)cc1C1CCN(C(=O)C(C)C)CC1	–	6.83	pIC50 [1]: 7.59; pIC50 [2]: 7.54
CCNC(=O)N1CCC(c2cc(OC3CC3)c(Nc3ncc(Cl)c(Nc4cn(C)nc4S(=O)(=O)C(C)C)n3)cc2C)CC1	7.70	7.09	pIC50 [1]: 8.40; pIC50 [2]: 8.22
Cc1cc(Nc2ncc(Cl)c(Nc3cn(C)nc3S(=O)(=O)C(C)C)n2)c(OC2CC2)cc1C1CCCN(C)C1 (stereo not drawn)	8.52	7.49	pIC50 [1]: 8.52; pIC50 [2]: 8.15
CS(=O)(=O)O.Cc1cc(Nc2ncc(Cl)c(Nc3cn(C)nc3S(=O)(=O)C(C)C)n2)c(OC(C)C)cc1C1CCN(C)CC1	–	–	Activity (Mus musculus): Non-toxic; half-life [5]: 5.1 h; AUC(0-inf) [6]: 988 ng·h/mL; Vd [7]: 7.5 L/kg; clearance [8]: 16.9 mL/min/kg; Cmax [9]: 199 ng/mL; Tmax [10]: 6.7 h; AUC(0-inf) [11]: 3120 ng·h/mL; bioavailability [12]: 63.2%; half-life [13]: 4.9 h; AUC(0-inf) [14]: 637 ng·h/mL; Vd [15]: 11 L/kg; clearance [16]: 26.2 mL/min/kg; Cmax [17]: 85.8 ng/mL; Tmax [18]: 2 h; AUC(0-inf) [19]: 952 ng·h/mL; bioavailability [20]: 49.2%

From ChEMBL document CHEMBL3603807, “Discovery of 2-arylamino-4-(1-methyl-3-isopropylsulfonyl-4-pyrazol-amino)pyrimidines as potent anaplastic lymphoma kinase (ALK) inhibitors” (Bioorg Med Chem Lett, 2015)
